Broadly, the IC50 is the concentration that inhibits the measured activity by half.

The target in one assay is T1, human P2X3 receptor (Homo sapiens, UniProt P56373).
T1 construct: expressed in transfected cells; host or cells: CHO-K1
T1 sequence (P56373 1-397): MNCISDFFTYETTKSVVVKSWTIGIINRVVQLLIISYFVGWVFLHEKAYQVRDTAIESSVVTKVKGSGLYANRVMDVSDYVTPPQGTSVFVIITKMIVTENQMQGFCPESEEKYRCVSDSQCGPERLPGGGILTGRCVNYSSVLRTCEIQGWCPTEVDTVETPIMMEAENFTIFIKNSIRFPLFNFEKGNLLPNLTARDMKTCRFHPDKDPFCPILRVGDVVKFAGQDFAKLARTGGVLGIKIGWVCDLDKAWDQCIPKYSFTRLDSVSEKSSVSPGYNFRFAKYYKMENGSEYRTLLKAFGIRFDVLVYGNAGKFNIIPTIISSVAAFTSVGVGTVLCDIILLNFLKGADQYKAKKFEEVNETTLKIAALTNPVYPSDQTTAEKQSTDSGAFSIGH
Put plainly: Calcium luminescence (photoprotein) assay in CHO-K1 cells co-expressing human P2X3 receptor, α,β-Met-ATP stimulation, FLEXSTATION readout. The assay is classed as cell-based. The note with it: Table 6; human P2X3 receptor antagonist activity, CHO-K1 cells, α,β-Met-ATP; read-out: h-P2X3 IC50. The gist of the method:
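CHO-K1 cells co-expressing human P2X3 and a Ca2+-sensitive photoprotein, loaded with coelenterazine in Tyrode's buffer (pH 7.4) for 4 h at 37 °C. Compounds injected 4 min before α,β-Met-ATP stimulation; luminescence recorded, IC50 and pseudo-Hill slope from nonlinear regression of inhibition curves.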
`COc1ccc(CN2C(=O)N3C(=NCC3CC(C)C)c3ncc(N4CCOCC4)cc32)cc1` (stereo not shown) [Example 38, 6-(4-methoxybenzyl)-3-(2-methylpropyl)-8-(morpholin-4-yl)-2,6-dihydroimidazo[1,2-c]pyrido[2,3-e]pyrimidin-5(3H)-one]: the IC50 was 2.04 µM.
Still for that read-out and setting: the result for `COc1cc(CN2C(=O)N3CC(C)N=C3c3ncc(N4CCOCC4)cc32)cc(OC)c1` (stereo not shown) [Example 3] reads 1.16 µM; that for `COc1ccc(CN2C(=O)N3C(=NCC3C(C)C)c3ncc(N4CCOCC4)cc32)cc1` (stereo not shown) [Example 1, 6-(4-methoxybenzyl)-8-(morpholin-4-yl)-3-(propan-2-yl)-2,6-dihydroimidazo[1,2-c]pyrido[2,3-e]pyrimidin-5(3H)-one], 5.22 µM.
For `O=C1N2CC(c3ccccc3)N=C2c2ncc(N3CCOCC3)cc2N1Cc1ccc(Cl)cc1` (stereo not shown) [Example 36, 6-(4-chlorobenzyl)-8-(morpholin-4-y1)-2-phenyl-2,6-dihydroimidazo[1,2-c]pyrido[2,3-e]pyrimidin-5(3H)-one], the IC50 worked out at 0.245 µM.
As to `COc1cc(CN2C(=O)N3C(=NC(C)C3C)c3ncc(N4CCOCC4)cc32)cc(OC)c1` (stereo not shown) [Example 8, 6-(3,5-dimethoxybenzyl)-2,3-dimethyl-8-(morpholin-4-y1)-2,6-dihydroimidazo[1,2-c]pyrido[2,3-e]pyrimidin-5(3H)-one], the IC50 was found to be 0.636 µM.
For `COc1cc(CN2C(=O)N3CC(C(C)C)N=C3c3ncc(C(=O)N4CCOCC4)cc32)cc(OC)c1` (stereo not shown) [Example 60, 6-(3,5-dimethoxybenzyl)-8-(morpholin-4-ylcarbonyl)-2-(propan-2-yl)-2,6-dihydroimidazo[1,2-c]pyrido[2,3-e]pyrimidin-5(3H)-one], the IC50 came out at 1.1 µM.
As to `CCC1CN2C(=O)N(Cc3ccc(OC)cc3)c3cc(N4CCOCC4)cnc3C2=N1` (stereo not shown) [Example 52, 2-ethyl-6-(4-methoxybenzyl)-8-(morpholin-4-y1)-2,6-dihydroimidazo[1,2-c]pyrido[2,3-e]pyrimidin-5(3H)-one], the IC50 came out at 1.25 µM.

Still in this assay, the particulars now being: Table 7; human P2X3 receptor antagonist activity, CHO-K1 cells, α,β-Met-ATP; read-out: h-P2X3 IC50.
On to `COc1ccc(Cn2c(=O)n3c(C(C)C)nnc3c3ncc(N4CCOCC4)cc32)cc1` [Example 97, 6-(4-methoxybenzyl)-8-(morpholin-4-yl)-3-(propan-2-yl)pyrido[2,3-e][1,2,4]triazolo[4,3-c]pyrimidin-5(6H)-one], for which the IC50 is 0.394 µM.
Regarding `COc1ccc(Cn2c(=O)n3c(CC(C)C)nnc3c3ncc(N4CCOCC4)cc32)cc1` [Example 104, 6-(4-methoxybenzyl)-3-(2-methylpropyl)-8-(morpholin-4-yl)pyrido[2,3-e][1,2,4]triazolo[4,3-c]pyrimidin-5(6H)-one], the IC50 amounted to 0.734 µM.
On the same count and under the same terms, under `CC(C)Cc1cn2c(=O)n(Cc3c(F)cc(Cl)cc3F)c3cc(N4CCOCC4)cnc3c2n1` [Example 75, 6-(4-chloro-2,6-difluorobenzyl)-2-(2-methylpropyl)-8-(morpholin-4-yl)imidazo[1,2-c]pyrido[2,3-e]pyrimidin-5(6H)-one] stands 3.51 µM.

The same assay, now with this note: Table 8; human P2X3 receptor antagonist activity, CHO-K1 cells, α,β-Met-ATP; read-out: h-P2X3 IC50.
As to `Cc1ccc(Cc2nn3c(C(C)C)nnc3c3ncc(N4CCOCC4)cc23)cc1` [Example 115, 6-(4-methylbenzyl)-8-(morpholin-4-yl)-3-(propan-2-yl)pyrido[2,3-d][1,2,4]triazolo[4,3-b]pyridazine], the IC50 came to 0.437 µM.
Consider `CC(c1nnc2c3ncc(N4CCOCC4)cc3c(Cc3ccc(Cl)cc3)nn12)C1CCOCC1` (stereo not shown) [Example 132, 6-(4-chlorobenzyl)-8-(morpholin-4-yl)-3-[1-(tetrahydro-2H-pyran-4-yl)ethyl]pyrido[2,3-d][1,2,4]triazolo[4,3-b]pyridazine], for which the IC50 was found to be 0.0191 µM.

The assay is the same for the next values; noted with them: Table 9; human P2X3 receptor antagonist activity, CHO-K1 cells, α,β-Met-ATP; read-out: h-P2X3 IC50.
With `COc1cc(CN2C(=O)N3CC(C)(C)N=C3c3ncc(N4CCOCC4)cc32)cc(OC)c1` [Example 161, 6-(3,5-dimethoxybenzyl)-2,2-dimethyl-8-(morpholin-4-yl)-2,6-dihydroimidazo[1,2-c]pyrido[2,3-e]pyrimidin-5(3H)-one], the IC50 stood at 4.29 µM.
